{
  "source": "paper PMC4300553",
  "about": "“A dynamically coupled allosteric network underlies binding cooperativity in Src kinase” (Nature Communications, 2015)",
  "key": {"Src D404N": {"system": "Src D404N", "assay": "Nucleotide binding to Src D404N", "parameters": "species or system chicken", "conditions": "asparagine incapable of chelating Mg2+; Supplementary Fig. 10", "experimental": "(§1) Thermodynamic binding parameters for the binding of nucleotides to the Src kinase domain were obtained through isothermal titration calorimetry as published. All experiments were run in a VP-ITC instrument (Microcal) at 25 °C. Proteins were exchanged into 20 mM Tris (pH 8.0), 250 mM NaCl, 10 mM MgCl2 on PD-10 buffer exchange columns (GE Life-science) and diluted to 50–100 μM. Nucleotide stocks (Sigma) were made in buffer to final concentrations between 1 and 3 mM. The heat of binding was measured over the injection of 295 μl of drug in 10-μl steps spaced 300 s apart. Data were fit to a one binding site model using the Origin software package (Microcal). Error bars represent the s.e. of the mean of three independent runs. Representative enthalpograms are shown in Supplementary Fig. 7.\nSupplementary Figure 10. Mutations to the allosteric network produce biochemical phenotypes. (A) Location of residues involved in the allosteric network (colored beads). (B) Representative conformations of Src wt and D404N. As shown, Asn404 mimics protonated Asp404 by forming hydrogen bonds with Asp386, and affects the conformation of Arg388, Trp428, and other residues involved in the substrate binding. (C) The effects of D404N mutation to three key residue-residue interaction of the putative allosteric network. (D) Dissociation […]\nsubstrate binding. […]"}, "Src T338I": {"system": "Src T338I", "conditions": "T338I versus wild type"}, "Src 3-domain construct": {"system": "Src 3-domain construct", "assay": "Cooperativity in Src three-domain construct (KM and KD)", "format": "binding", "conditions": "Supplementary Fig. 6", "description": "Domain Kinase. (A) The effect of ATP concentration on substrate KM for Src kinase domain and 3-domain construct. (B) The effect of ATP concentration on substrate KM for WT and T338I mutant Src 3-domain construct (C) The effect of peptide concentration on ATP KM for Src kinase domain and 3-domain construct. (D) The effect of substrate concentration on ATP KM for WT and T338I mutant Src 3-domain construct. (E) Dissociation constants Src kinase domain and 3-domain constructs at increasing AMP-PNP concentration. (F) Dissociation constants for WT and T338I mutant Src 3-domain construct. KM values were determined in a kinase activity assay. KD values for the substrate peptides were determined using fluorescence anisotropy at 1 µM labeled peptide. All experiments were performed in triplicate, and data represent mean values ± s.e.m.\n(§2) (1 picture or pasted object on this page, not shown here)"}, "Hck kinase domain": {"molecular_target": "T1, Hck kinase domain (Homo sapiens, UniProt P08631)", "T1 construct": "human Hck (residues 166–445); made in house", "T1 sequence (P08631 247-526)": "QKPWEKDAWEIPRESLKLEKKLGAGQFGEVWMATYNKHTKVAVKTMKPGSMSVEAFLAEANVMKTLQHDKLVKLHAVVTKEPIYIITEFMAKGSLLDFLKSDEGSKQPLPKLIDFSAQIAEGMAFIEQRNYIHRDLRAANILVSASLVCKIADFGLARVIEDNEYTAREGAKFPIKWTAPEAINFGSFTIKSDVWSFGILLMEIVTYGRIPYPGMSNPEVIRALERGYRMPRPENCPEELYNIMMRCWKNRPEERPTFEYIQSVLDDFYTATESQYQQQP", "assay": "Kinase activity assay, Hck kinase domain", "format": "biochemical", "conditions": "increasing substrate-peptide (RS1) concentration; Fig. 3b", "quoted_text": "(§3) Mutations were introduced into the chicken c-Src kinase domain by site-directed mutagenesis and verified by DNA sequencing.\n(§4) For the continuous spectrophotometric assay[64], 12.5–800 μM ATP Src-optimal substrate peptide ([sequence])[34] was combined with 12.5–800 μM ATP. Concentrations of Src kinase domain used for these assays were 25 nM. The initial velocities were plotted and fit to the Michaelis–Menten equation in Kaleidagraph (Synergy Software) to determine Km."}, "Src W260A": {"system": "Src W260A", "assay": "Kinase activity assay, Src W260A", "format": "biochemical, chicken", "conditions": "W260A versus wild type", "quoted_text": "as §3, §4"}, "Abl kinase domain": {"molecular_target": "T2, Abl kinase domain (Homo sapiens, UniProt P00519)", "T2 construct": "human c-Abl (residues 229–512); made in house", "T2 sequence (P00519 229-512)": "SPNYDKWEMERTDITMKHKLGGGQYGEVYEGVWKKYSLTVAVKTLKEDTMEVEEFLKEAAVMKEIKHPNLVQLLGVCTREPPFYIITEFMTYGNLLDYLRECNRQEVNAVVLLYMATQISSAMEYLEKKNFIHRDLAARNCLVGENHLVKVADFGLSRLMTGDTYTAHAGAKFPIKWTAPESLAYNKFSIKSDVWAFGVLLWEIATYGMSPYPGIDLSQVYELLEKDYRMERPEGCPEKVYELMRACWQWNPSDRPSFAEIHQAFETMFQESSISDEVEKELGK", "assay": "Kinase activity assay, Abl kinase domain", "format": "biochemical", "conditions": "increasing substrate-peptide (RS1) concentration; Fig. 3b", "quoted_text": "as §3, §4"}, "Src kinase domain [1]": {"molecular_target": "T3, Src kinase domain (Gallus gallus, UniProt P00523)", "T3 construct": "chicken c-Src (residues 251–533); made in house", "assay": "Kinase activity assay (continuous spectrophotometric), Src kinase domain", "format": "biochemical, chicken", "conditions": "for Km: 25 nM Src kinase domain, mean ± s.e.m., triplicate", "quoted_text": "as §3, §4"}, "Ser/Thr kinase PKA": {"system": "Ser/Thr kinase PKA", "conditions": "cited from earlier work", "description": "The putative allosteric network discussed above may manifest itself in the form of cooperativity between ATP and substrate binding. […] Higher concentrations of AMP-PNP, a non-hydrolysable ATP ana ..."}, "Src kinase domain [2]": {"molecular_target": "T3, Src kinase domain", "assay": "Fluorescence anisotropy binding assay, substrate peptide to Src kinase domain (wild type)", "parameters": "species or system chicken", "conditions": "for binding cooperativity of substrates and products (summary): ATP + substrate peptide, ADP + pRS1, Src kinase; for cooperativity of peptide and AMP-PNP binding: Kd at various concentrations of AMP-PNP, 1 μM labelled peptide; for change of Kd of substrate peptide by AMP-PNP: increasing AMP-PNP concentration", "quoted_text": "After a 1-min equilibration, the increase in the fluorescence anisotropy of the fluorescently labelled ligand was recorded using a Fluoromax 4 (Horiba) and fitted against a quadratic binding equation in Kaleidagraph (Synergy Software) to yield the Kd. Error bars represent the s.e. of the mean of the independent runs."}, "[3]": {"molecular_target": "T338I mutant Src 3-domain construct (Gallus gallus, UniProt P00523, T338I)", "assay": "Km of ATP and substrate peptide, T338I mutant Src 3-domain construct", "format": "biochemical", "conditions": "higher Km for ATP, lower Km for substrate peptide"}, "kinase": {"system": "kinase", "conditions": "high Mg2+ concentration; cited from earlier work", "description": "Mg^2+ ions accompany ATP and ADP binding in protein kinases, mediating interactions between phosphate groups and conserved Asp and Asn residues (Asp404 and Asn391 in Src). On the other hand, in some kinase-ADP co-crystal structures, Mg^2+ ions are missing. In such cases, the Asp residue of the DFG motif (Asp404 in Src) is almost certainly protonated to prevent negative charge repulsion from the ADP phosphate group only 3.2 Å away (for example, PDB entry 1JBP (ref. [16]))."}, "Src kinase domain [4]": {"molecular_target": "T3, Src kinase domain", "assay": "Isothermal titration calorimetry, nucleotide binding to Src kinase domain", "parameters": "species or system chicken", "conditions": "for Kd: isothermal titration calorimetry, 25 °C, 20 mM Tris (pH 8.0), 250 mM NaCl, 10 mM MgCl2; for fold reduction of nucleotide Kd by phosphorylated peptide (pRs1): presence of pRs1", "experimental": "as §1\nSupplementary Figure 7. Isothermal Titration Calorimetry of Src Binding to AMP-PNP and\nADP (A) Sample titration curve for AMP-PNP binding to the Src kinase domain.(B) Sample\ntitration curve of ADP binding to the Src kinase domain. All experiments were run in a VP-ITC\ninstrument (Micro-cal) at 25 °C. Proteins were exchanged into 20 mM Tris (pH 8.0), 250 mM\nNaCl, 10 mM MgCl2 on PD-10 buffer exchange columns (GE Life-science), and diluted to 50–\nas §2"}, "[5]": {"conditions": "100 mM Tris, pH 8.0, 10 mM MgCl2, 25 °C"}},
  "note": "Entries after “also recorded” stand apart in the source; their conditions may differ. Read-outs that look alike come from different tables or passages of the source.",
  "data": [
    {"compound": "Nc1ncnc2c1ncn2[C@@H]1O[C@H](COP(=O)(O)OP(=O)(O)OP(=O)(O)O)[C@@H](O)[C@H]1O", "note": "[ATP]", "values": [
      {"measurement": "ATP binding to Src D404N", "setting": "Src D404N", "value": "does not bind ATP favourably"},
      {"measurement": "Km of T338I for ATP relative to wild type", "setting": "Src T338I", "value": "twofold higher"},
      {"measurement": "cooperativity of ATP and substrate binding, three-domain construct", "setting": "Src 3-domain construct", "value": "negative cooperativity is present"},
      {"measurement": "ATP Km versus substrate-peptide concentration, Hck", "setting": "Hck kinase domain", "value": "increases with increasing substrate-peptide concentration"},
      {"measurement": "Km of W260A for ATP relative to wild type", "setting": "Src W260A", "value": "two- to fivefold lower"},
      {"measurement": "ATP Km versus substrate-peptide concentration, Abl", "setting": "Abl kinase domain", "value": "increases with increasing substrate-peptide concentration"},
      {"measurement": "Km", "setting": "Src kinase domain [1]; 50 μM substrate peptide, read-out: Km for ATP at 50 μM substrate peptide", "value": "54 ± 22", "unit": "µM"},
      {"measurement": "Km", "setting": "Src kinase domain [1]; 800 μM substrate peptide, read-out: Km for ATP at 800 μM substrate peptide", "value": "202 ± 21", "unit": "µM"},
      {"measurement": "ATP Km versus substrate-peptide concentration, Src", "setting": "Src kinase domain [1]; increasing substrate-peptide (RS1) concentration, Fig. 3b", "value": "increases with increasing substrate-peptide concentration"},
      {"measurement": "cooperativity between ATP and substrate binding, PKA", "setting": "Ser/Thr kinase PKA", "value": "positive cooperativity"},
      {"measurement": "binding cooperativity of substrates and products (summary)", "setting": "Src kinase domain [2]", "value": "negative cooperativity"},
      {"measurement": "Mg2+ dependence of binding and cooperativity", "setting": "Src kinase domain [2]; presence vs absence of Mg2+, ionic strength adjusted to 40 mM with NaCl, Supplementary Fig. 9", "value": "disrupts ATP binding; also recorded: requires the presence of Mg^2+"},
      {"measurement": "Km of T338I three-domain Src relative to wild type", "setting": "[3]", "value": "This relationship holds for three-domain Src"}
    ]},
    {"compound": "Nc1ncnc2c1ncn2[C@@H]1O[C@H](COP(=O)(O)OP(=O)(O)O)[C@@H](O)[C@H]1O", "note": "[ADP]", "values": [
      {"measurement": "ADP release in kinase catalytic cycle", "setting": "kinase", "value": "slower at high Mg^2+ concentration"},
      {"measurement": "Kd", "setting": "Src kinase domain [4]", "value": "45 to 100", "unit": "µM"},
      {"measurement": "fold reduction of nucleotide Kd by phosphorylated peptide (pRs1)", "setting": "Src kinase domain [4]", "value": "twofold"},
      {"measurement": "binding cooperativity of substrates and products (summary)", "setting": "Src kinase domain [2]", "value": "positive cooperativity"}
    ]},
    {"compound": "Nc1ncnc2c1ncn2[C@@H]1O[C@H](COP(=O)(O)OP(=O)(O)NP(=O)(O)O)[C@@H](O)[C@H]1O", "note": "[AMP-PNP]", "values": [
      {"measurement": "Kd", "setting": "Src kinase domain [4]", "value": "45 to 100", "unit": "µM"},
      {"measurement": "fold reduction of nucleotide Kd by phosphorylated peptide (pRs1)", "setting": "Src kinase domain [4]", "value": "three"}
    ]},
    {"compound": "AEEMIYGEFAKKK [Rs2]", "values": [
      {"measurement": "cooperativity of peptide and AMP-PNP binding", "setting": "Src kinase domain [2]; [5]", "value": "negative cooperativity independent of their overall affinity"}
    ]},
    {"compound": "CC[C@H](C)[C@H](NC(=O)[C@H](CCC(=O)O)NC(=O)[C@H](CCC(=O)O)NC(=O)[C@H](CCC(=O)O)NC(=O)[C@H](C)N)C(=O)N[C@@H](Cc1ccc(O)cc1)C(=O)NCC(=O)N[C@@H](CCC(=O)O)C(=O)N[C@@H](Cc1ccccc1)C(=O)N[C@@H](C)C(=O)N[C@@H](CCCCN)C(=O)N[C@@H](CCCCN)C(=O)N[C@@H](CCCCN)C(=O)O", "note": "[Rs1]", "values": [
      {"measurement": "Kd", "setting": "Src kinase domain [2]", "value": "37 ± 7", "unit": "µM"},
      {"measurement": "Kd", "setting": "Src kinase domain [2]; 100 μM ADP, 1 μM fluorescein-labelled peptide, 100 mM Tris, pH 8.0, 10 mM MgCl2, 25 °C, mean ± s.e.m., triplicate, read-out: Kd of substrate peptide at 100 μM ADP", "value": "17 ± 4", "unit": "µM"},
      {"measurement": "Kd", "setting": "Src kinase domain [2]; 1,000 μM ADP, 1 μM fluorescein-labelled peptide, 100 mM Tris, pH 8.0, 10 mM MgCl2, 25 °C, mean ± s.e.m., triplicate, read-out: Kd of substrate peptide at 1,000 μM ADP", "value": "16 ± 2", "unit": "µM"},
      {"measurement": "change of Kd of substrate peptide by AMP-PNP", "setting": "Src kinase domain [2]; 1 μM fluorescein-labelled peptide, 100 mM Tris, pH 8.0, 10 mM MgCl2, 25 °C, listed as optimal substrate peptide for Src", "value": "increase the Kd up to fivefold"},
      {"measurement": "change of Kd of substrate peptide by AMP-PNP", "setting": "Src kinase domain [2]; 1 μM fluorescein-labelled peptide, 100 mM Tris, pH 8.0, 10 mM MgCl2, 25 °C, listed as substrate peptide", "value": "increases the Kd of substrate peptide fivefold"}
    ]},
    {"compound": "GIYWHHY [Rs3, short substrate peptide (GIYWHHY)]", "values": [
      {"measurement": "cooperativity of peptide and AMP-PNP binding", "setting": "Src kinase domain [2]; [5]", "value": "negative cooperativity independent of their overall affinity"}
    ]}
  ]
}
